Six compounds from ChEMBL document CHEMBL1201862, “PubChem BioAssay data set” (2004) can be followed below.

The nature of experiment [1]: DRD fibroblast viability loss – cell-based, non-viral oncogenic, luminescence, dose response (AID 1934). The format is functional. To be noted: Homo sapiens.
Experiment [2] has as its system BJ. Put plainly: BJ-TERT fibroblast viability loss – cell-based, RAS-independent, luminescence, dose response (AID 1933). The format is functional. The settings on record: Homo sapiens.
For experiment [3], the system named is BJ. Put plainly: growth inhibition of engineered Ras-driven BJ cells – cell-based, alamar blue fluorescence, cherrypicked samples, dose response (AID 2631).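 Note: confirmatory dose-response assay in RAS-dependent BJ fibroblasts engineered with TERT, LT and ST, with cytotoxicity read by fluorescence.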 The format is functional. The settings on record: Homo sapiens.
A short description of experiment [4]: non-specific 3'UTR reporter inhibition in Clone20-Shn3RL – cell-based, Renilla luciferase, cherry-picked, counter-screen for Shn3 inhibitor project, dose response (AID 624133). Format: functional.
Experiment [5] is described as follows: loss of viability in HepG2 cells – cell-based, CellTiter-Glo, cherry-picked, cytotoxicity control for Shn3 inhibitor project, dose response (AID 624134). Format: functional. In general terms: Cellular ATP, detected with luciferase, serves as a proxy for viable cell number.
In experiment [6] the target is Beta-galactosidase (Escherichia coli, UniProt Q8VNN2). Put plainly: PubChem AID 485352. The format is functional.
A short description of experiment [7]: Luminescence Cell-Based Dose Retest to Confirm Inhibitors of Cancer Stem Cells. [Related pubchem assays (depositor defined):AID2717, AID2721]. The format is functional. The settings on record: Homo sapiens.
Experiment [8] has as its system BJ. Put plainly: cells. Format: functional, cell-based. The settings on record: Homo sapiens.
The subject of experiment [9] is Vero. As to the kind of experiment: cells. The format is functional, cell-based. The settings on record: Chlorocebus sabaeus.
A short description of experiment [10]: reduction of Shn3 3'UTR-driven luciferase in osteoblasts – cell-based, Clone20 osteoblasts, firefly luciferase, cherry-picked, dose response (AID 624132).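 Note: firefly luciferase luminescence from reporter carrying the Shn3 3'UTR in osteoblasts.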 The format is functional.
Experiment [11] deals with BJ. Put plainly: BJ-TERT-LT-ST fibroblast viability loss – cell-based, RAS-independent, luminescence, dose response (AID 1935).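 Note: BJ fibroblasts immortalized with TERT plus LT and ST oncogenes.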 Format: functional. To be noted: Homo sapiens.
In experiment [12] the test system is Vero. As to the kind of experiment: cells. Format: functional. To be noted: Chlorocebus sabaeus.
The target in experiment [13] is T1, Type-1 angiotensin II receptor (Homo sapiens, UniProt P30556).
T1 sequence (P30556 whole entry): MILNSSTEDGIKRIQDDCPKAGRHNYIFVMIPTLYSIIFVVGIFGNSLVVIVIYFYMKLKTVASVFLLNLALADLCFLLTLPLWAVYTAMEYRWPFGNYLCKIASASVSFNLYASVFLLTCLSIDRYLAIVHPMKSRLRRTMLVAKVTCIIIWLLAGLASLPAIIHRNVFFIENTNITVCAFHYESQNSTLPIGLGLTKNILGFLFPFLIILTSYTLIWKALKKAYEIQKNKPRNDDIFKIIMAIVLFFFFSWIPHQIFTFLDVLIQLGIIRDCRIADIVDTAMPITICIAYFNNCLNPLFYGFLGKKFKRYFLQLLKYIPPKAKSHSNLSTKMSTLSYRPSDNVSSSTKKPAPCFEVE
Put plainly: antagonism of angiotensin II type 1 receptor – cell-based, uHTS hits, selectivity assay for APJ receptor antagonist project, dose response (AID 463214).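 Note: antagonist potency against angiotensin II stimulated AT1 response.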 The format is functional.

In experiment [14] the target is T2, Ubiquitin-conjugating enzyme E2 N (Homo sapiens, UniProt P61088).
T2 sequence (P61088 whole entry): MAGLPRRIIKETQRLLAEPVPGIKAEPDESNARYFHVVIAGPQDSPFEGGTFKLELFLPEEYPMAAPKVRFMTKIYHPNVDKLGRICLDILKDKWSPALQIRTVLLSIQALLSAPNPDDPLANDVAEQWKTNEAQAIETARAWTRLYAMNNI
Format: functional.

In experiment [15] the target is Nonstructural protein 1 (Influenza A virus, UniProt Q194T2). Format: functional, Influenza A virus (A/California/07/2009(H1N1)).
Experiment [16] concerns the target T3, Bcl-2-related protein A1 (Mus musculus, UniProt Q07440).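 Note: confirmatory dose–response counterscreen on Bfl-1, used to check hits from a UBC13 polyubiquitin inhibitor campaign.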
T3 sequence (Q07440 whole entry): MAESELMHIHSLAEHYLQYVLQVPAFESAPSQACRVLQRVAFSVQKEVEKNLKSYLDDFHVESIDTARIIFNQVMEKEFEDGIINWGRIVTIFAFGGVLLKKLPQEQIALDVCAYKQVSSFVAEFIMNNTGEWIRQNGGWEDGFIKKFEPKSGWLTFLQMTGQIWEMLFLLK
The format is functional.

The target of experiment [17] is T2, Ubiquitin-conjugating enzyme E2 N. Format: functional. This is another data set of the same source.
Experiment [18] has as its target T4, Rac GTPase-activating protein 1 (Homo sapiens, UniProt Q9H0H5).
T4 sequence (Q9H0H5 whole entry): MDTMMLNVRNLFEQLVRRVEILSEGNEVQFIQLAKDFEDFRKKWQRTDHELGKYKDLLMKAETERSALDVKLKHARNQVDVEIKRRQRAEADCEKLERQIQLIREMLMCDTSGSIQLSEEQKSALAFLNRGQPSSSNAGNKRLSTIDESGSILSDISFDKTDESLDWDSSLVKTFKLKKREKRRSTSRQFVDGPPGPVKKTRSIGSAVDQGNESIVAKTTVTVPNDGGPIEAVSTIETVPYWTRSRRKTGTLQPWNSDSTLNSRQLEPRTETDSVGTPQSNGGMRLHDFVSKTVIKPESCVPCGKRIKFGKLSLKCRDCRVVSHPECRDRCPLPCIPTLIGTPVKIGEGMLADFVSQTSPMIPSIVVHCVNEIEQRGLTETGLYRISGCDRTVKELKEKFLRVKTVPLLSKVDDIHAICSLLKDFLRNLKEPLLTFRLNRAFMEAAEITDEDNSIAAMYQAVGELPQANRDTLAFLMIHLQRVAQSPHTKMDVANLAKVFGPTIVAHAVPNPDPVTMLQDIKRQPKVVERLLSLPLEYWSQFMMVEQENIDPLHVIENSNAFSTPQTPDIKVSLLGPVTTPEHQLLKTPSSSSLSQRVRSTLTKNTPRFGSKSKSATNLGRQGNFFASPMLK
As to the kind of experiment: blockers of MgcRacGAP-driven Rac1 GTP hydrolysis – biochemical, ADP Hunter fluorescence, primary and confirmatory, confirmation (AID 624330). The format is functional.

Experiment [19] has as its target T5, Sentrin-specific protease 6 (Homo sapiens, UniProt Q9GZR1).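 Note: Luminescence-based dose-response confirmatory assay of SENP6 inhibition, following up an ultra-high-throughput screen.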
T5 sequence (Q9GZR1 whole entry): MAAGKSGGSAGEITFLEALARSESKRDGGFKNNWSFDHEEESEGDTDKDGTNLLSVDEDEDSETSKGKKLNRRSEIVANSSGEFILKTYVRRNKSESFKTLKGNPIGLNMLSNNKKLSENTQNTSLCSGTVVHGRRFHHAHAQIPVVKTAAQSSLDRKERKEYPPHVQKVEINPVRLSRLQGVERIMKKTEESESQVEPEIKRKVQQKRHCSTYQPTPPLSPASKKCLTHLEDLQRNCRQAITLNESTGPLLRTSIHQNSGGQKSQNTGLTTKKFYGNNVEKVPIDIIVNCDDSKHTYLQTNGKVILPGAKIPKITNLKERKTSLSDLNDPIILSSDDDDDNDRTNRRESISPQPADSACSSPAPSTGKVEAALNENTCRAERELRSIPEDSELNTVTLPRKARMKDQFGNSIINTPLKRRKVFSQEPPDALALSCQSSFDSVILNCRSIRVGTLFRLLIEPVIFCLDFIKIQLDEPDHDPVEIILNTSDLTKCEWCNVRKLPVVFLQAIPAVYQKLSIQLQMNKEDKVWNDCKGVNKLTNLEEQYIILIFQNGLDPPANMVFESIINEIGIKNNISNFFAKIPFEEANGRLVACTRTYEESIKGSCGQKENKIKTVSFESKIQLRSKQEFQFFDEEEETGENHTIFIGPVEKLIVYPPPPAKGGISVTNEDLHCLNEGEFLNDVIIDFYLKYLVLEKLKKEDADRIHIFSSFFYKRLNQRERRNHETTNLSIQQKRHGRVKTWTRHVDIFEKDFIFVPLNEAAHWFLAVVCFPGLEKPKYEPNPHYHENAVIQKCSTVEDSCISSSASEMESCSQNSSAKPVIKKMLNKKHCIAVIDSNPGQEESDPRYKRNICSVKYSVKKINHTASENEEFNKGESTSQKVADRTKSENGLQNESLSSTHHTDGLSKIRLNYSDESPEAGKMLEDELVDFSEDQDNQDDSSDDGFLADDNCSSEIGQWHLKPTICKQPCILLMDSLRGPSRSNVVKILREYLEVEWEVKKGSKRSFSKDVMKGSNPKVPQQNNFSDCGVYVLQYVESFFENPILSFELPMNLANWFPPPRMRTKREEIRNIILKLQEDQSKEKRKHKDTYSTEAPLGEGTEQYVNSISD
Format: functional.

Experiment [20] addresses T6, Sentrin-specific protease 7 (Homo sapiens, UniProt Q9BQF6).
T6 sequence (Q9BQF6 whole entry): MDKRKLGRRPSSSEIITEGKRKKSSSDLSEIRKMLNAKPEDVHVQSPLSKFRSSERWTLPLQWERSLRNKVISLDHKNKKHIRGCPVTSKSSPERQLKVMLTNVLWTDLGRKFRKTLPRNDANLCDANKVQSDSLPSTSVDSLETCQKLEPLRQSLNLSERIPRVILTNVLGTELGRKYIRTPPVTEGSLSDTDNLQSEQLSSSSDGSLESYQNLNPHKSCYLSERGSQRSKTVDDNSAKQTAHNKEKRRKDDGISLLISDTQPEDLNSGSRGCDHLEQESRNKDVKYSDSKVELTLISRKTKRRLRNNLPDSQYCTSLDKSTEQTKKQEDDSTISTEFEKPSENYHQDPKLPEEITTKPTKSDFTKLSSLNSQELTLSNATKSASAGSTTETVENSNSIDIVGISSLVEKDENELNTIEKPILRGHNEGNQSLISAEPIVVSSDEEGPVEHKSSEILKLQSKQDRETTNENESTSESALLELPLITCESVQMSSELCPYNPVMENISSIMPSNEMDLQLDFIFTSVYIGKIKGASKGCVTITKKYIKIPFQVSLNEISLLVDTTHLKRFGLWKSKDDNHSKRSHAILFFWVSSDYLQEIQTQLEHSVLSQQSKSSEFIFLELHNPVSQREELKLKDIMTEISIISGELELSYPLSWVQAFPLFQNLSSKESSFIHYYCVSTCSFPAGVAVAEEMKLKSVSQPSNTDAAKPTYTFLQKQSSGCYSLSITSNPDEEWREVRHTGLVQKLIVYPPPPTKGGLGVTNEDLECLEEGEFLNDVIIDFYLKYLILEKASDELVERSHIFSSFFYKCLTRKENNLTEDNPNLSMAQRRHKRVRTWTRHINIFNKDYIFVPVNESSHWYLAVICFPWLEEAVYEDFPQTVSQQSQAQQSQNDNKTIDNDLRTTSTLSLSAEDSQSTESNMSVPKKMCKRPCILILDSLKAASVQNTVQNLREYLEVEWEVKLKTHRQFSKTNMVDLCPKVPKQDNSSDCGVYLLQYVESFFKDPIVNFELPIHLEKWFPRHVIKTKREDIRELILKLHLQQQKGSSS
The format is functional.

Experiment [21] deals with T7, Caspase-3 (Homo sapiens, UniProt P42574).
T7 sequence (P42574 whole entry): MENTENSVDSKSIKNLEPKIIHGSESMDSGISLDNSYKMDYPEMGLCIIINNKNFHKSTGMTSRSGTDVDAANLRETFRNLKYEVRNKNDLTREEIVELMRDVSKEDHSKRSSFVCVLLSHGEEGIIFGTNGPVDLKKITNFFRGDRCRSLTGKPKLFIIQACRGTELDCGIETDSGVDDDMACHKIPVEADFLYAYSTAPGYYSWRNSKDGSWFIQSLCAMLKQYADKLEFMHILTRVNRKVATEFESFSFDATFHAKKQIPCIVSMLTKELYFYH
Format: functional.

In experiment [22] the target is T8, Sentrin-specific protease 8 (Homo sapiens, UniProt Q96LD8).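 Note: luminescence read-out of SENP8 inhibition, dose-response confirmation following an ultra-high-throughput screen.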
T8 sequence (Q96LD8 whole entry): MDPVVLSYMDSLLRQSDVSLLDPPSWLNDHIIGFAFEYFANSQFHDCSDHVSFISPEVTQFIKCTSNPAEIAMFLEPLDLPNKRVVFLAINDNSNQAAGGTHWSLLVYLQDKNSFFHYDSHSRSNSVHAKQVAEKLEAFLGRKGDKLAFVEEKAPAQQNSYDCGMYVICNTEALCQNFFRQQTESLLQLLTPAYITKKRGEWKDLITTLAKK
The format is functional.

Calls of active or inactive are those of the source.

Sequence of Nonstructural protein 1 (Q194T2 whole entry): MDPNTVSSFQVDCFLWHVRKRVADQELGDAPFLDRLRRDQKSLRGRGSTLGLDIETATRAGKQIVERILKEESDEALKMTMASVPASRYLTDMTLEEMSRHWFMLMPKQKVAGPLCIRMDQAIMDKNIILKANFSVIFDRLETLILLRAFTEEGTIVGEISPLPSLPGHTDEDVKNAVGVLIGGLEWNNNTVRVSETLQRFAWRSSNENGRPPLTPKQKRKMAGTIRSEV
Sequence of Beta-galactosidase (Q8VNN2 whole entry): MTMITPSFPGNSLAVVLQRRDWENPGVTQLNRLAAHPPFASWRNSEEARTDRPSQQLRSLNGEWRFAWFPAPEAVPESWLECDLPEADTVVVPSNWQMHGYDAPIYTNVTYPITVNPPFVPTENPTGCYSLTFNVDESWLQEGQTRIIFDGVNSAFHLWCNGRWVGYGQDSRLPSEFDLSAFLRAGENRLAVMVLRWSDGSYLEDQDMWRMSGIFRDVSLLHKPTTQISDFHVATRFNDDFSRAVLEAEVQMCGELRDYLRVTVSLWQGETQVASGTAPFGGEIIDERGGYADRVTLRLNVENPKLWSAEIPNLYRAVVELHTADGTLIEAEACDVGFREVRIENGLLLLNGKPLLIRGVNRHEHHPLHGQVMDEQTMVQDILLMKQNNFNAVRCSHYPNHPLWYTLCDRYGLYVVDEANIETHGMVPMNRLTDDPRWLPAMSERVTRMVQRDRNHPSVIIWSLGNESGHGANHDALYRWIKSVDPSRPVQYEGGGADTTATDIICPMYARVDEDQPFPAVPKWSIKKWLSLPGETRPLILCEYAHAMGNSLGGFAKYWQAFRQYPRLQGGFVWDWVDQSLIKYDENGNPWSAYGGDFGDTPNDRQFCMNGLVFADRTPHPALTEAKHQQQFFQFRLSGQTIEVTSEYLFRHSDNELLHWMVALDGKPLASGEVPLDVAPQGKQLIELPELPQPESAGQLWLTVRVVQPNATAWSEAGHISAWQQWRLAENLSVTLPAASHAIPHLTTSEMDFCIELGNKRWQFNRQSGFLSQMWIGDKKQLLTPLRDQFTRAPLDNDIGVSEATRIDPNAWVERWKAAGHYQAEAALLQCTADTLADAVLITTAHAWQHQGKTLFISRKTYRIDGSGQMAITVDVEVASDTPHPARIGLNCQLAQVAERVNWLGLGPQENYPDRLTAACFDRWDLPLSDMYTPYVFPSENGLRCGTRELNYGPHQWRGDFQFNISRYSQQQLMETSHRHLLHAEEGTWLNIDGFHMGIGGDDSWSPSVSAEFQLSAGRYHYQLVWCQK

The term EC50 denotes the concentration that produces a half-maximal response. A word on the AC50: it is the concentration at which the activity in the assay is half-maximal. What is called IC50 is the concentration that inhibits the measured activity by half. In general, CC50 refers to the concentration at which the toxic effect on the cells reaches its halfway point. Take `CCN1C(=O)C(=Cc2cccc(OC)c2Oc2ccc([N+](=O)[O-])cc2[N+](=O)[O-])SC1=S`: the EC50 in experiment [1] is 4.38 µM (active); in experiment [2], 2.5 µM (inconclusive); in [3], 2.22 µM (active); in [6] it was > 40 µM (inactive); in experiment [8] it was 3.45 µM (inconclusive); in [11], 3.5 µM (active). Further, the AC50 in experiment [4] was 7.11 µM (active); in experiment [5] it was 5.77 µM (active); in experiment [7] it was 0.853 µM (active); in experiment [10], 1.89 µM (active). The half-maximal inhibitory concentration (IC50) was > 6.25 µM (active) in [9] and > 40 µM (not active) in experiment [13]. Besides, the CC50 in experiment [12] is 3.96 µM (active).
Turning to `Oc1cc(Nc2ccncc2)cc2cccnc12`, the IC50 in experiment [14] was 8.54 µM (active); in [15] it was 5.11 µM (active); in [16] it was > 20 µM (inactive); in [17] it was 6.9 µM (active).
Turning to `Cn1cccc1/C=C1\SC(Nc2ccc(O)cc2)=NC1=O`, the concentration giving a half-maximal response (EC50) in [1] is 0.362 µM (active); in experiment [3], < 0.104 µM (active); in experiment [8], 0.926 µM (inconclusive); in [11] it was 0.357 µM (inconclusive). Also, the IC50 in experiment [18] was 94.8 µM (active).
Regarding `COc1cccc(NC(=O)C(S)=NC2CCCCC2)c1`, the IC50 in [19] was 20.8 µM (active); in experiment [20] it was 5.39 µM (active); in experiment [21] it was 17.9 µM (active); in experiment [22], 23 µM (active).
In the case of `COC(=O)c1ccc(N=Nc2ccccc2)cc1`, the IC50 in experiment [19] was 13.2 µM (active); in experiment [20] it was 5.11 µM (active); in experiment [21], 11.6 µM (active); in experiment [22] it was 20.2 µM (active).
Consider `COc1ccccc1NC(=O)CCSc1ccc(C)cc1`, for which the IC50 in experiment [19] was 34.9 µM (active); in experiment [20] it was 11.2 µM (active); in experiment [21], 18.1 µM (active); in experiment [22], 37 µM (active).
